Assay [1] concerns the target T1, 5-HT1A serotonin receptor (Rattus norvegicus, UniProt P19327).
T1 construct: following the procedure of Hall et al., J. Neurochem; 44, 1685 (1985); from tissue
T1 sequence (P19327 1-422): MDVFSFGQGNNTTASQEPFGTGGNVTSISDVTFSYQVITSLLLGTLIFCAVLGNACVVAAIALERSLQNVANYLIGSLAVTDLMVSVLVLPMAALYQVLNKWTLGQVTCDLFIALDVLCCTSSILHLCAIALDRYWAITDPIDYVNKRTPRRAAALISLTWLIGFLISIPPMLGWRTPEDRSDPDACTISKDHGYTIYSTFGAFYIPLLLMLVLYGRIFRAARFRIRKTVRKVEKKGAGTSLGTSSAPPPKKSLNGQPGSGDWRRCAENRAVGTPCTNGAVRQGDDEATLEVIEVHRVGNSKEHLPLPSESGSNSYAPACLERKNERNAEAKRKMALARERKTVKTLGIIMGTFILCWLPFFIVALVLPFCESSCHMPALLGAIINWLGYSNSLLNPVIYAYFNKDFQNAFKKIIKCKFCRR
The assay is described as follows: displacement of [^3 H] 8-OHDPAT (dipropylaminotetralin) from the 5-HT1A serotonin receptor (Hall et al., J. Neurochem. 44, 1685 (1985)). The following applies: read-out: 5-HT1A Binding (IC50). The protocol: Representative compounds of the present invention were evaluated and determined to have high affinity for the serotonin 5-HT1A receptor by testing the compound's ability to displace [^3 H] 8-OHDPAT (dipropylaminotetralin) from the 5-HT1A serotonin receptor following the procedure of Hall et al., J. Neurochem. 44, 1685 (1985). […] The anxiolytic activity of buspirone is believed to be, at least partially, due to its 5-HT1A receptor affinity (Vander Maclen et al., Eur. J. Pharmacol. 1986,129 (1-2)[…]).

Assay [2] deals with 5-HT1A serotonin receptor subtype. The following applies: buspirone as standard for anxiolytic activity; cited from earlier work.

In the case of `COc1ccsc1C1(O)CCN(C[C@H](Cc2ccccc2)NC(=O)OC(C)(C)C)CC1` [Example 1, (S)-{1-Benzyl-2-[4-hydroxy-4-(3-methoxy-thiophen-2-yl)-piperidin-1-yl]-ethyl}-carbamic acid tert-butyl ester], the IC50 (as a rule, the midpoint of a concentration-inhibition curve) in assay [1] stood at 80 nM. Same read-out and setting: then `COc1ccsc1C1=CCN(C[C@H](Cc2ccccc2)NC(=O)OC(C)(C)C)CC1` [Example 2, (S)-{1-Benzyl-2-[4-(3-methoxy-thiophen-2-yl)-3,6-dihydro-2H-pyridin-1-yl]-ethyl}-carbamic acid tert-butyl ester], with 1.6 nM. Same read-out and setting: then `COc1ccsc1C1=CCN(C[C@H](Cc2ccccc2)NC(=O)C2CCCCC2)CC1` [Example 3, (S)-cyclohexanecarboxylic acid {1-benzyl-2-[4-(3-methoxy-thiophen-2-yl)-3,6-dihydro-2H-pyridin-1-yl]-ethyl}-amide], with 0.78 nM.

Consider `COc1ccsc1C1CCN(C[C@H](Cc2ccccc2)NC(=O)C2CCCCC2)CC1` [Example 4, Cyclohexanecarboxylic acid {(1S)-1-benzyl-2-[4-(3-methoxy-thiophen-2-yl)-piperidin-1-yl]-ethyl}-amide], for which, in assay [1], the half-inhibitory concentration (IC50) worked out at 1.1 nM. For `O=C1CC2(CCCC2)CC(=O)N1CCCCN1CCN(c2ncccn2)CC1` [buspirone], the “5-HT1A receptor affinity (in words)” value in assay [2] is “potent affinity”.
